Holding throughout (assay): Plate-bound mCD1d fusion protein hybridoma stimulation assay (IL-2 ELISA)
What all share (type): cell-based, mouse

One test deals with Vβ/9 hybridoma. To be noted: Vβ/9 NKT hybridoma; plate-bound mCD1d-IgGFc2a fusion protein preincubated with lipid antigen. Put shortly:
(§1)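 Fusion protein (400-600 ng/well) captured on protein A plates; lipid added in PBS pH 7.2, 40:1 default ratio; 24-48 hr 37° C; washed; hybridomas 1×10^5/well, 16-20 hr 37° C; IL-2 ELISA vs standard curve. Some wells: anti-mCD1d 19G11 at 20 μg/ml final.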

For the next test, the system named is DN32D3 hybridoma. The following applies: DN32D3 NKT hybridoma; plate-bound mCD1d-IgGFc2a fusion protein preincubated with lipid antigen. Summed up: as §1
The next test deals with XV104 hybridoma. The following applies: XV104 diverse TCR hybridoma; plate-bound mCD1d-IgGFc2a fusion protein preincubated with lipid antigen. Put shortly:
as §1

On to `CCCCCCCCCCCCCCCCCCCCCCCCCC(=O)N[C@@H](CO[C@H]1O[C@H](CO)[C@H](O)[C@H](O)[C@H]1O)[C@H](O)[C@H](O)CCCCCCCCCCCCCC` [α-GalCer, α-galactosylceramide], for which the figures for the IL-2 secretion result in the test on Vβ/9 hybridoma, in the test on DN32D3 hybridoma and with XV104 hybridoma were “++ (“++” indicates 250-1000 pg/ml)”, “+++ (“+++” indicates greater than 1000 pg/ml IL-2)” and 0 (A “0” indicates a mean of less than 50 pg/ml IL-2 was secreted), respectively.

In the case of unglycosylated ceramide, the IL-2 secretion in the test on Vβ/9 hybridoma, in the test with DN32D3 hybridoma and in the test with XV104 hybridoma was 0 (A “0” indicates a mean of less than 50 pg/ml IL-2 was secreted) each time.

For β-galactosylceramide [β-GalCer], the IL-2 secretion in the test with Vβ/9 hybridoma, with DN32D3 hybridoma and in the test on XV104 hybridoma was 0 (A “0” indicates a mean of less than 50 pg/ml IL-2 was secreted) in each case.

As to phosphatidylinositol [PI], the IL-2 secretion in the test with Vβ/9 hybridoma, in the test on DN32D3 hybridoma and in the test with XV104 hybridoma was 0 (A “0” indicates a mean of less than 50 pg/ml IL-2 was secreted) each time.

The values above are taken from patent publication US20020071842A1, “Soluble CD1 compositions and uses thereof” (priority 2000, published 2002).
